Test results from BindingDB's records for doi:10.1021/jm0496335 (2005).
Values joined by “and” are separate entries in the source; they are usually repeats but may differ in a detail not shown here. Equal entries are not always repeated.

Target: Somatostatin receptor type 2 (Mus musculus, UniProt P30875)
Assay: Inhibition of [125I][Leu8,D-Trp22,[…]]somatostatin-28 binding to somatostatin receptor 2

Sequence of Somatostatin receptor type 2 (P30875 whole entry): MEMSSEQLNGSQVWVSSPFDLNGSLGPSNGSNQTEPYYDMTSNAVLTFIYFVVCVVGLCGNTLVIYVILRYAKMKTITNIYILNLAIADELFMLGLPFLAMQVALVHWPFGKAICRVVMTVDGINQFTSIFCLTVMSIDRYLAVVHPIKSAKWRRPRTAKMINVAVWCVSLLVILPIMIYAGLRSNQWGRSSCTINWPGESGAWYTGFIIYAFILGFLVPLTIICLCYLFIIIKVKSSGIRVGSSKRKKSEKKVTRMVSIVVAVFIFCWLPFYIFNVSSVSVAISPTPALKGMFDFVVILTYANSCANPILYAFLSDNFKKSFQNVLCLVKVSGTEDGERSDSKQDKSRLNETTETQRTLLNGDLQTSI

In the case of `C[C@H](O)[C@@H]1NC(=O)[C@H](CCCCN)NC(=O)[C@@H](Cc2c[nH]c3ccccc23)NC(=O)[C@H](Cc2ccc(O)cc2)NC(=O)[C@@H](NC(=O)[C@@H](Cc2ccccc2)NC(=O)CN2CCN(CC(=O)O)CCN(CC(=O)O)CCN(CC(=O)O)CC2)CSSCC(C(=O)N[C@H](CO)[C@H](C)O)NC1=O` (stereo partly specified), the IC50 is reported as 0.46 nM and 2.2 nM.
